Like-named read-outs stand apart in the source and are kept apart here.
Experiments:
Format in all cases: cell-based, Escherichia coli
[1] = system: E. coli EKO-35; assay: microbe, parasite or virus in culture; settings: for Fold change of MICs: EKO-35 compared to EKO-35 (reference); for MIC: Escherichia coli, EKO35
In short: (§1)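 MIC derived from pre-incubation-corrected OD600 after 18 h growth at 37° C. (900 rpm) in MHB II. Inoculum was cells from 18 h LB culture adjusted to OD600 ~1.0 in PBS, then diluted 1/2000; compounds two-fold serially titrated in duplicate, DMSO as solvent control.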

[2] = system: E. coli ΔtolC; assay: microbe, parasite or virus in culture; settings: for MIC: Escherichia coli, 18 h, read-out: Minimum Inhibitory Concentration, ΔtolC; for Minimum inhibitory concentration (MIC), ΔtolC: Table 10, without pore
In short: as §1

[3] = system: wild-type E. coli K-12 str. BW25113; assay: microbe, parasite or virus in culture; settings: technical duplicate; for MIC: Escherichia coli, BW25113
In short: as §1

[4] = system: EKO-35 araC::mexCD Pore; assay: MIC susceptibility profiling, porinated efflux platform; settings: for Fold changes of MICs: EKO-35 araC::mexCD Pore compared to EKO-35-Pore; for MIC: Escherichia coli, read-out: Minimum inhibitory concentration
In short: (§2)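 Strains carry the fhuA ΔC/Δ4L pore integrated between glmS and pstS under a constitutive promoter, with pore activity checked by vancomycin susceptibility. Overnight LB cultures were adjusted in PBS pH 7.4 to OD600 ~1.0 and diluted 1/2000 into MHB II. 2-fold compound titrations were read by OD600 after 18 h at 37 °C.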

[5] = system: EKO-35 araC::emrKY Pore; assay: as above; settings: for Fold changes of MICs: EKO-35 araC::emrKY Pore compared to EKO-35-Pore; for MIC: Escherichia coli, read-out: Minimum inhibitory concentration
In short: as §2

[6] = system: EKO-35 araC::mdtBC Pore; assay: as above; settings: for Fold changes of MICs: EKO-35 araC::mdtBC Pore compared to EKO-35-Pore; for MIC: Escherichia coli, read-out: Minimum inhibitory concentration
In short: as §2

[7] = system: EKO-35 araC::mdtEF Pore; assay: as above; settings: for Fold changes of MICs: EKO-35 araC::mdtEF Pore compared to EKO-35-Pore; for MIC: Escherichia coli, read-out: Minimum inhibitory concentration, EKO-35 araC::mdtEF Pore
In short: as §2

[8] = system: EKO-35 araC::macAB Pore; assay: as above; settings: for Fold changes of MICs: EKO-35 araC::macAB Pore compared to EKO-35-Pore; for MIC: Escherichia coli, read-out: Minimum inhibitory concentration
In short: as §2

[9] = Table 10, without pore, technical duplicate, read-out: Minimum inhibitory concentration (MIC), EKO-35
[10] = Table 13A, non-porinated, technical duplicate, read-out: Minimum Inhibitory Concentration, EKO-35
[11] = Table 10, without pore, read-out: Minimum inhibitory concentration (MIC), K-12
[12] = Table 13A, non-porinated, read-out: Minimum Inhibitory Concentration, K-12
[13] = EKO-35 araC::mexCD Pore, technical duplicate
[14] = EKO-35 araC::emrKY Pore, technical duplicate
[15] = EKO-35 araC::mdtBC Pore, technical duplicate
[16] = EKO-35 araC::macAB Pore, technical duplicate
[17] = Table 14A, porinated, technical duplicate
[18] = Table 13A, non-porinated, technical duplicate

Row | SMILES | Fold change of MICs [1] | MIC [1, 9] | MIC [1, 10] | MIC [2] | Minimum inhibitory concentration (MIC), ΔtolC ([2]; technical duplicate) | MIC [3, 11] | MIC [3, 12] | Fold changes of MICs [4] | MIC [4, 13] | Fold changes of MICs [5] | MIC [5, 14] | Fold changes of MICs [6] | MIC [6, 15] | Fold changes of MICs [7] | Fold changes of MICs [8] | MIC [8, 16] | MIC [7, 17] | further results
1 | CCCCCCCCCCCCOS(=O)(=O)[O-].[Na+] [SDS, sodium dodecyl sulphate] | 1 fold | 31.2 µg/mL | 31.2 µg/mL | 15.6 µg/mL | 15.625 µg/mL | 1000 µg/mL | 1000 µg/mL | 4 fold | 125 µg/mL | 1 fold | 31.2 µg/mL | 1 fold | 31.2 µg/mL | 32 fold | 1 fold | 31.2 µg/mL |  | 
2 | COc1cccc2c1C(=O)c1c(O)c3c(c(O)c1C2=O)C[C@@](O)(C(C)=O)C[C@@H]3O[C@H]1C[C@H](N)[C@H](O)[C@H](C)O1 [daunorubicin] | 1 fold | 3.12 µg/mL | 3.12 µg/mL | 1.56 µg/mL | 1.563 µg/mL | 200 µg/mL | 200 µg/mL | 16 fold | 12.5 µg/mL | 1 fold | 0.781 µg/mL | 4 fold | 3.12 µg/mL | 64 fold | 2 fold | 1.56 µg/mL | 50 µg/mL | efflux pump-mediated resistance vs EKO-35-Pore ([6]; MdtBC with the pore): associated with resistance
3 | O=C(NC(=O)N1CCc2c([nH]c3ccccc23)C1C(F)(F)F)c1ccccc1 (stereo not drawn) [compound 13] | 1 fold |  |  |  | 1.25 µg/mL |  |  | 1 fold |  | 1 fold |  | 1 fold |  | 8 fold | 1 fold |  |  | Minimum inhibitory concentration (MIC), EKO-35 ([1]; Table 10, without pore, technical duplicate): 40 µg/mL; Minimum Inhibitory Concentration, EKO-35 [1, 18]: 40 µg/mL; susceptibility of EKO-35 to the compound ([1]; synthetic efflux substrates of FIG. 12): susceptible; Minimum Inhibitory Concentration, ΔtolC [2, 18]: 1.25 µg/mL; Minimum inhibitory concentration (MIC), K-12 ([3]; Table 10, without pore): 320 µg/mL; Minimum Inhibitory Concentration, K-12 ([3]; Table 13A, non-porinated): 320 µg/mL; Minimum inhibitory concentration [4, 13]: 5 µg/mL; efflux pump-mediated resistance vs EKO-35-Pore ([4]; MexCD, OM compromised): no longer associated MexCD with resistance; Minimum inhibitory concentration [5, 14]: 2.5 µg/mL; Minimum inhibitory concentration [6, 15]: 5 µg/mL; Minimum inhibitory concentration, EKO-35 araC::mdtEF Pore [7, 17]: 40 µg/mL; Minimum inhibitory concentration [8, 16]: 5 µg/mL
4 | CN(C)[C@@H]1C(O)=C(C(N)=O)C(=O)[C@@]2(O)C(O)=C3C(=O)c4c(O)cccc4[C@@](C)(O)[C@H]3C[C@@H]12 [tetracycline] | 1 fold | 0.195 µg/mL | 0.195 µg/mL | 0.391 µg/mL | 0.391 µg/mL | 1.56 µg/mL | 1.56 µg/mL | 1 fold | 0.195 µg/mL | 1 fold | 0.195 µg/mL | 1 fold | 0.195 µg/mL | 1 fold | 1 fold | 0.195 µg/mL | 0.195 µg/mL | 
5 | [H]/N=C(\N/C(=N/[H])NCCCCCCNC(=N)NC(=N)Nc1ccc(Cl)cc1)Nc1ccc(Cl)cc1 [Chlorhexidine] | 1 fold | 0.391 µg/mL | 0.391 µg/mL | 0.391 µg/mL | 0.391 µg/mL | 0.781 µg/mL | 0.781 µg/mL | 1 fold | 0.391 µg/mL | 1 fold | 0.391 µg/mL | 1 fold | 0.391 µg/mL | 1 fold | 1 fold | 0.391 µg/mL | 0.391 µg/mL | 

Reference: patent US20230407243A1, “GENETIC PLATFORM TO INVESTIGATE THE FUNCTIONS OF BACTERIAL DRUG EFFLUX PUMPS” (priority 2022, published 2023)
